Test system: Non-malignant S1 cells
Assay: 3D LrECM culture translational assay, Live/Dead viability/cytotoxicity (Calcein AM/EthD-1), non-malignant cells
Format: cell-based
Settings: 3D culture, FIG. 8B
Protocol: Twenty-one compounds were received and reconstituted to yield 10 mM stock solution. Compounds were independently tested on a 2D culture assay to determine cell survival. Combinations of compounds were then tested on a 6×6 matrix on 2D culture to determine synergistic dosing. Then functional validation of the synergistic combinations was determined in 3D culture. (See FIG. 2).
Non-malignant S1 and Malignant T4-2 cells were evaluated for growth inhibition or cell death with the determined concentrations. The cells were plated at a density of 2×10^4 (S1) or 1×10^4 (T4-2) cells per well on top of Matrigel layer and allowed to form multicellular tumor colonies for 4-5 days. Then the cells were treated with either single-drug or drug combinations as PCI designed to evaluate synergistic interactions. Fresh media containing testing drugs were replenished every other day. At the end of the assay, we analyzed morphology and viability/cytotoxicity using phase imaging and fluorescent detection with Live/Dead using viability/cytotoxicity (Calcein AM/EthD-1) kit (FIG. 8). 3D translational assay in non-malignant S1 and malignant T4-2 cells were repeated 3 times.

Structure (SMILES): COC[C@H](NC(=O)c1cnc(C)s1)C(=O)N[C@@H](COC)C(=O)N[C@@H](Cc1ccccc1)C(=O)[C@@]1(C)CO1 [Oprozomib, N-[(2S)-3-methoxy-1-[[(2S)-3-methoxy-1-[[(2S)-1-[(2R)-2-methyloxiran-2-yl]-1-oxo-3-phenylpropan-2-yl]amino]-1-oxopropan-2-yl]amino]-1-oxopropan-2-yl]-2-methyl-1,3-thiazole-5-carboxamide]
- cell proliferation in non-malignant S1 cells: promoted cell proliferation

Source: patent US12521394B2, “Therapeutic compositions and methods for treating cancers” (Pattern Computer, Inc., priority 2019, dated 2026)
